Assay [1] concerns the target T1, human DP2 receptor (Homo sapiens, UniProt Q9Y5Y4).
T1 construct: expressed in transfected cells
T1 sequence (Q9Y5Y4 1-395): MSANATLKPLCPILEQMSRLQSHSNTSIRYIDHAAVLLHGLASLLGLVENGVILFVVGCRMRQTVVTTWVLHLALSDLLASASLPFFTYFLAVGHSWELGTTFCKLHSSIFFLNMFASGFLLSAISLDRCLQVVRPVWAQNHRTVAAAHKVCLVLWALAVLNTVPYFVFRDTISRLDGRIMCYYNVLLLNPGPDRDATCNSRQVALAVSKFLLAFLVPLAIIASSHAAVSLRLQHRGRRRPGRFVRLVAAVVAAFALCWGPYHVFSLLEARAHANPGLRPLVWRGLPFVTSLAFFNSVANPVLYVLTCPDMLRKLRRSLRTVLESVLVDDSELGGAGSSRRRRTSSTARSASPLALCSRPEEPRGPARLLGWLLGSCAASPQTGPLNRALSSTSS
Description: DP2/CRTH2 binding assay (radioligand [3H]PGD2). The following applies: [3H]PGD2 binding, membranes of HEK293 cells expressing recombinant human DP2; read-out: hDP2. As for the experimental part: The ability of a compound to bind to the human DP2 receptor is assessed via a radioligand binding assay using [^3H]PGD2. HEK293 cells stably expressing recombinant human DP2 are resuspended in 10 mM Hepes, 7.4 containing 1 mM DTT, lysed and centrifuged at 75,000×g to pellet the membranes. The membranes are resuspended in 10 mM Hepes, 7.4 containing 1 mM DTT and 10% glycerol to approximately 5 mg protein/ml. Membranes (2-10 μg protein/well) are incubated in 96-well plates with 1 nM [^3H]PGD2 and test compound in Assay Buffer (50 mM Hepes, 10 mM MnCl2, 1 mM EDTA, plus or minus 0.2% human serum albumin, pH 7.4) for 60 minutes at room temperature. The reactions are terminated by rapid filtration through Whatman GF/C glass fibre filter plates. The filter plates were pre-soaked in 0.33% polythylenimine for 30 minutes at room temperature then washed in Wash Buffer (50 mM Hepes, 0.5 M NaCl pH 7.4) prior to harvesting. After harvesting, the filter plates are washed 3 times with 1 ml cold Wash Buffer then dried. Scintillant is then added to the plates and the radioactivity retained on the filters is determined on a Packard TopCount (Perkin Elmer). Specific binding is determined as total radioactive binding minus non-specific binding in the presence of 10 μM PGD2. IC50s were determined using GraphPad prism analysis of drug titration curves.

Assay [2] concerns the target T2, human DP1 receptor (Homo sapiens, UniProt Q13258).
T2 construct: tissue Biological Specialty Corporation; host or cells: human platelets, membrane preparation
T2 sequence (Q13258 1-359): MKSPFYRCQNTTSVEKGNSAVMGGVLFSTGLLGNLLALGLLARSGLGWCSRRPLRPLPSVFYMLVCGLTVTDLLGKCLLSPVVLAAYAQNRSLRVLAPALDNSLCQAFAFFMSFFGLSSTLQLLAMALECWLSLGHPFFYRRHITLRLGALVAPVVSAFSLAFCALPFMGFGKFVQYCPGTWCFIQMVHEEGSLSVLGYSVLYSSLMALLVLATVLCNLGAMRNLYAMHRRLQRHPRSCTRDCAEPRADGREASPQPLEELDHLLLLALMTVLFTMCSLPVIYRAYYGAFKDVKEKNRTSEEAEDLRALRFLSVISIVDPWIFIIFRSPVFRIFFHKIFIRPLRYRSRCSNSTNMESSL
Description: DP1 binding assay (radioligand [3H]BWA868C). Particulars: [3H]BWA868C binding, human platelet membranes; read-out: hDP1. As for the experimental part:
The ability of a compound to bind to the human DP1 receptor was evaluated via a radioligand membrane binding assay using the DP1 selective synthetic ligand [^3H]BWA868C. Packed human platelets (Biological Specialty Corporation), were resuspended in 6 volumes of Hepes/HBSS buffer (10 mM Hepes, 1 mM DTT in Hanks Balanced Salt Solution (HBSS), lysed and centrifuged at 75,000×g to pellet the membranes. Membranes were resuspended in Hepes/HBSS buffer to approximately 12 mg protein/ml. Membranes (20 μg protein/well) are incubated in 96-well plates with 2 nM [^3H]BWA868C and test compound in Assay Buffer (50 mM Hepes, 10 mM MnCl2, 1 mM EDTA, plus or minus 0.2% human serum albumin, pH 7.4) for 60 minutes at room temperature. The reactions are terminated by rapid filtration through Whatman GF/C glass fibre filter plates. The filter plates were pre-soaked in 0.33% polethylenimine for 30 minutes at room temperature then washed in Wash Buffer (50 mM Hepes, 0.5 M NaCl pH 7.4) prior to harvesting. After harvesting, the filter plates are washed 3 times with 1 ml cold Wash Buffer then dried. Scintillant is then added to the plates and the radioactivity retained on the filters is determined on a Packard TopCount (Perkin Elmer). Specific binding is determined as total radioactive binding minus non-specific binding in the presence of 10 μM BW A868C. IC50s were determined using GraphPad prism analysis of drug titration curves.

Turning to `O=C(O)CN(C1CCc2c(c3ccccc3n2CC(=O)O)C1)S(=O)(=O)c1ccc(F)cc1` (centres unmarked) [Compound 1-1, {3-[Carboxymethyl-(4-fluoro-benzenesulfonyl)-amino]-1,2,3,4-tetrahydro-carbazol-9-yl}-acetic acid], the IC50 in assay [1] is below 300 nM; in assay [2] it was above 1000 nM.
In the same order, the values of `CC(C)(O)CCn1c2c(c3ccccc31)CC(N(CC(=O)O)S(=O)(=O)c1ccc(F)cc1)CC2` (centres unmarked) [Compound 1-2, {(4-Fluoro-benzenesulfonyl)-[9-(3-hydroxy-3-methyl-butyl)-2,3,4,9-tetrahydro-1H-carbazol-3-yl]-amino}-acetic acid] are above 1000 nM and above 1000 nM.
In the case of `CC(C)(O)CN(C1CCc2c(c3ccccc3n2CCC(=O)O)C1)S(=O)(=O)c1ccc(F)cc1` (centres unmarked) [Compound 1-3, 3-{3-[(4-Fluoro-benzenesulfonyl)-(2-hydroxy-2-methyl-propyl)-amino]-1,2,3,4-tetrahydro-carbazol-9-yl}-propionic acid], the IC50 in assay [1] and in assay [2] was above 1000 nM each time.
With `CC(C)(O)CCn1c2c(c3ccccc31)CC(N(CC(C)(C)O)S(=O)(=O)c1ccc(F)cc1)CC2` (centres unmarked) [Compound 1-4, 4-FluoroN-[9-(3-hydroxy-3-methyl-butyl)-2,3,4,9-tetrahydro-1H-carbazol-3-yl]-N-(2-hydroxy-2-methyl-propyl)-benzenesulfonamide], the IC50 in assay [1] and in assay [2] was above 1000 nM in each case.
With `NC(=O)CN(C1CCc2c(c3ccccc3n2CCC(=O)O)C1)S(=O)(=O)c1ccc(F)cc1` (centres unmarked) [Compound 1-5, 3-{3-[Carbamoylmethyl-(4-fluoro-benzenesulfonyl)-amino]-1,2,3,4-tetrahydro-carbazol-9-yl}-propionic acid], the IC50 in assay [1] and in assay [2] was above 1000 nM in each case.
For the molecule `O=C(O)CCn1c2c(c3ccccc31)CC(N(CC(=O)O)S(=O)(=O)c1ccc(F)cc1)CC2` (centres unmarked) [Compound 1-6, 3-{3-[Carboxymethyl-(4-fluoro-benzenesulfonyl)-amino]-1,2,3,4-tetrahydro-carbazol-9-yl}-propionic acid], the IC50 in assay [1] and in assay [2] was above 1000 nM each time.
Regarding `O=C(O)CCn1c2c(c3ccccc31)C[C@H](NS(=O)(=O)c1ccc(F)cc1)CC2` [Ramatroban, reference compound], the figures for the IC50 in assay [1] and in assay [2] were above 300 nM and above 1000 nM, respectively.

(Values after patent US8501959B2, “Cycloalkane[B]indole antagonists of prostaglandin D2 receptors” (Panmira Pharmaceuticals, LLC, priority 2008, dated 2013).)
